The text below walks through data of patent US12077503B2, “Substituted cyclic amides and their use as herbicides” (FMC CORPORATION, priority 2015, dated 2024).

Holding throughout (type): in vivo
Assay [1] deals with Kochia (Kochia scoparia). As to the kind of experiment: Test A preemergence. The settings on record: Bassia scoparia, pre-emergence, 240 h, preemergence, 0 to 100 scale where 0 is no effect and 100 is complete control, read-out: Kochia plant response rating; for pest or weed control at 125 g/ha: 125 g ai/ha, approx. 10 d; for pest or weed control at 500 g/ha: 500 g ai/ha. A digest of the protocol:
(§1)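 Compounds were formulated in a non-phytotoxic solvent mixture with surfactant and applied as a preemergence directed soil spray after seeding, or sprayed postemergence over plants 2 to 10 cm tall at the one- to two-leaf stage. Evaluation after about 10 d compared treated with untreated controls, using a scale from 0 (no effect) to 100 (complete control).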

The test system of assay [2] is barnyardgrass (Echinochloa crus-galli). As to the kind of experiment: Test A preemergence. Particulars: Echinochloa crus-galli, pre-emergence, 240 h, preemergence, read-out: Barnyardgrass plant response rating; for pest or weed control at 125 g/ha: 125 g ai/ha, approx. 10 d; for pest or weed control at 500 g/ha: 500 g ai/ha. A digest of the protocol: as §1
The test system of assay [3] is giant foxtail (Setaria faberii). As to the kind of experiment: Test A preemergence. The settings on record: Setaria faberi, pre-emergence, 240 h, preemergence, 0 to 100 scale where 0 is no effect and 100 is complete control, read-out: Foxtail, Giant plant response rating; for pest or weed control at 125 g/ha: 125 g ai/ha, approx. 10 d; for pest or weed control at 500 g/ha: 500 g ai/ha. The method in brief:
as §1

The subject of assay [4] is pigweed (Amaranthus retroflexus). As to the kind of experiment: Test A preemergence. Particulars: Amaranthus retroflexus, pre-emergence, 240 h, preemergence, 0 to 100 scale where 0 is no effect and 100 is complete control, read-out: Pigweed plant response rating; for pest or weed control at 125 g/ha: 125 g ai/ha, approx. 10 d; for pest or weed control at 500 g/ha: 500 g ai/ha.

Assay [5] deals with ragweed (common ragweed, Ambrosia elatior). As to the kind of experiment: Test A preemergence. Particulars: Ambrosia artemisiifolia, pre-emergence, 240 h, preemergence, 0 to 100 scale where 0 is no effect and 100 is complete control, read-out: Ragweed plant response rating; for pest or weed control at 125 g/ha: 125 g ai/ha, approx. 10 d. The method in brief: as §1
The subject of assay [6] is ryegrass, Italian (Italian ryegrass, Lolium multiflorum). Description: Test A preemergence. The settings on record: Lolium multiflorum, pre-emergence, 240 h, preemergence, 0 to 100 scale where 0 is no effect and 100 is complete control, read-out: Ryegrass, Italian plant response rating; for pest or weed control at 125 g/ha: 125 g ai/ha, approx. 10 d; for pest or weed control at 500 g/ha: 500 g ai/ha. The method in brief: as §1

In assay [7] the test system is Galium (catchweed bedstraw, Galium aparine). As to the kind of experiment: Test A postemergence. Particulars: Galium, post-emergence, 240 h, postemergence, read-out: Galium plant response rating; for pest or weed control at 125 g/ha: 125 g ai/ha, visual injury on 0 to 100 scale (0 no effect, 100 complete control), approx. 10 d; for pest or weed control at 500 g/ha: 500 g ai/ha, 0 to 100 scale, 0 is no effect, 100 is complete control. A digest of the protocol: as §1

In assay [8] the test system is barnyardgrass (Echinochloa crus-galli). Description: Test A postemergence. Particulars: Echinochloa crus-galli, post-emergence, 240 h, postemergence, read-out: Barnyardgrass plant response rating; for pest or weed control at 125 g/ha: 125 g ai/ha, visual injury on 0 to 100 scale (0 no effect, 100 complete control), approx. 10 d; for pest or weed control at 500 g/ha: 500 g ai/ha, 0 to 100 scale, 0 is no effect, 100 is complete control. The method in brief:
as §1

Assay [9] deals with corn (Zea mays). As to the kind of experiment: Test A postemergence. The settings on record: Zea mays, post-emergence, 240 h, postemergence, read-out: Corn plant response rating; for plant injury at 125 g/ha: 125 g ai/ha, visual injury on 0 to 100 scale (0 no effect, 100 complete control), approx. 10 d; for plant injury at 500 g/ha: 500 g ai/ha, 0 to 100 scale, 0 is no effect, 100 is complete control. A digest of the protocol: as §1

Assay [10] has as its system ragweed (common ragweed, Ambrosia elatior). As to the kind of experiment: Test A postemergence. Particulars: Ambrosia artemisiifolia, post-emergence, 240 h, postemergence, read-out: Ragweed plant response rating; for pest or weed control at 125 g/ha: 125 g ai/ha, visual injury on 0 to 100 scale (0 no effect, 100 complete control), approx. 10 d; for pest or weed control at 500 g/ha: 500 g ai/ha, 0 to 100 scale, 0 is no effect, 100 is complete control. The method in brief:
as §1

Assay [11] concerns barnyardgrass (Echinochloa crus-galli). Description: Test B flooded paddy test. The settings on record: Echinochloa crus-galli, 250 g ai/ha, Flood; 0 to 100 scale where 0 is no effect and 100 is complete control; read-out: Barnyardgrass plant response rating. The method in brief: (§2)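 Flooding to 3 cm over soil accompanied treatment, which consisted of adding compound to the standing water around 2-leaf plants; depth was then maintained. Visual assessment versus controls followed at 13 to 15 d (scale 0–100, 0 meaning no effect).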

Assay [12] relates to ducksalad (Heteranthera limosa). Description: Test B flooded paddy test. The settings on record: Heteranthera limosa, 250 g ai/ha, Flood; 0 to 100 scale where 0 is no effect and 100 is complete control; read-out: Ducksalad plant response rating. The method in brief:
as §2

Assay [13] relates to rice (Oryra sativa). As to the kind of experiment: Test B flooded paddy test. Particulars: Oryza sativa, 250 g ai/ha, Flood; 0 to 100 scale where 0 is no effect and 100 is complete control; read-out: Rice plant response rating. The method in brief: as §2
In assay [14] the test system is sedge, umbrella (small-flower umbrella sedge, Cyperus difformis). As to the kind of experiment: Test B flooded paddy test. Particulars: Cyperus difformis, 250 g ai/ha, Flood; 0 to 100 scale where 0 is no effect and 100 is complete control; read-out: Sedge, Umbrella plant response rating. The method in brief:
as §2

The mark [15] stands for this setting: 0 to 100 scale where 0 is no effect and 100 is complete control.

Turning to `Cc1c(F)cccc1NC(=O)[C@H]1C(=O)NC[C@@H]1c1cc(F)c(F)c(F)c1` [Compound 1125], the pest or weed control at 125 g/ha in assay [1] worked out at 50%; in assay [2] (setting [15]) it was 90%; in [3], 90%; in assay [4], 0%; in [5], 0%; in assay [6] it was 0%. For the same compound, the pest or weed control at 125 g/ha in assay [7] was 40%; in assay [8] it was 90%; in assay [10], 0%. The pest or weed control at 500 g/ha in assay [1] turned out to be 80%; in assay [2] (setting [15]), 90%; in assay [3], 100%; in [4], 40%; in [6] it was 60%; in [7] it was 50%. In addition, the pest or weed control at 500 g/ha came to 90% in assay [8] and 0% in assay [10]. In [9], the plant injury at 125 g/ha is 30%. For the same compound, in [9], the plant injury at 500 g/ha was determined as 60%. Moreover, the pest or weed control at 250 g/ha was found to be 70% in assay [11], 100% in assay [12], 0% in [13] and 0% in assay [14].

In the case of `CN1C[C@H](c2cc(C(F)F)cs2)[C@@H](C(=O)Nc2ccccc2F)C1=O` [Compound 1120], the pest or weed control at 125 g/ha in [1] was 40%; in assay [2] (setting [15]), 90%; in assay [3], 90%; in assay [4], 0%; in [5], 40%; in [6], 20%. Also, the pest or weed control at 125 g/ha in [7] was 40%; in assay [8], 90%; in [10], 0%. The pest or weed control at 500 g/ha in [1] was found to be 70%; in assay [2] (visual injury rating about 10 d after treatment, 0 to 100 scale (0 no effect, 100 complete control)), 100%; in [3] it was 100%; in [4], 50%; in assay [5] (500 g ai/ha), 50%; in assay [6], 40%. For the same compound, the pest or weed control at 500 g/ha in [7] is 60%; in assay [8] it was 90%; in assay [10] it was 50%. In addition, in assay [9], the plant injury at 125 g/ha was 0%. The plant injury at 500 g/ha in assay [9] is 60%. The pest or weed control at 250 g/ha is 65% in assay [11], 100% in assay [12], 20% in assay [13] and 0% in [14].
